What was measured:
[1] = molecular target: Envelope protein (gp41) of the NL4.3 reference virus (HIV-1); assay: cell-based or functional assay
[2] = molecular target: Envelope protein (gp41) of the strongly resistant NL-DIM virus (HIV-1); assay: cell-based or functional assay
[3] = test system: HIV viruses (NL-DIM, NL4.3, LAI-L91H); assay: Validation of fusion inhibitor susceptibility method: resistant recombinant viruses versus reference viruses T5A1 and LAI; assay type: cell-based, HIV-1
Method: The recombinations that are obtained by using for the amplification of stage (b) the pair of primers FuA: 5′ […]3′ (SEQ ID No: 23) and FuB: 5′ […]3′ (SEQ ID No: 24) followed by a second amplification, carried out with the primer: FuC: 5′ […]3′ (SEQ ID No: 25) and a mixture of the following primers: FuD1: 5′ […]3′ (SEQ ID No: 26) and FuD2: 5′ […]3′ (SEQ ID No: 27) are very effective.
Actually, to obtain a satisfactory viral production, 10-50 ng of PCR product, used in the recombination stage, is generally adequate. In this method that is intended to analyze the phenotypic fusion characteristic, a viral production corresponding to 50-400 ng/ml of p24 is obtained after transfection. For the infection of target cells, between 0.5 and 5 ng of p24/well (96-well plates) is used. The increase of the optical density that is obtained after infection of target cells is linear if the infection is conducted under these conditions.
To validate the analytical method that relates to the susceptibility of HIV viruses to fusion inhibitors, two fusion inhibitors have been used: a peptide derived from the distal helix sequence in the gp41 of HIV (called DP178 or T20) and a derivative of betulinic acid (RPR103611). For each inhibitor, the reduction of sensitivity of one or more resistant viruses (previously identified by other authors) relative to two reference viruses: a primary plasmatic virus T5A1 and a virus adapted to in-vitro cultivation (LAI) was carried out. All the viruses were produced by recombination.
The increases of IC50 for a strongly resistant NL-DIM virus (described by Rimsky, L. T. et al. J. Virol. 1998, Vol. 72, pages 896-993) and for the NL4.3 virus (which is partially resistant) were measured regarding this inhibitor.
The increase of IC50 of the LA1-L91H resistant virus (Labrosse, B. et al. J. Virol. 2000 Vol 74, pages 2142-2150) regarding this inhibitor has been measured.

P4 cells = assay type: cell-based
Source text: The inhibitor concentration ranges that are used are selected based on the cellular toxicity of each compound and the IC50/IC90, ratio for the susceptibility of the resistant isolates (Table 1). […] A range of four serial dilutions, beginning at […], was used for the abacavir, making it possible to detect up to 60× more resistance.

[4] = test system: HIV virus (recombinant virus carrying reverse transcriptase from patient plasma); assay: Recombinant virus assay (RVA): susceptibility to reverse transcriptase inhibitors, recombinant viruses from patient samples; assay type: cell-based, HIV-1; conditions: for median Resistance Index (RI) relative to NL43: 22 tested viruses from patients with ordinary treatment, 3 RVA replicates; for resistance levels (in words): sample R5
Method: (§1) The determination of the susceptibility of an HIV virus to a reverse transcriptase inhibitor is carried out in the following manner: 293 T cells are transfected with 7.5 μg of pSRT plasmid that is linearized by NruI, 0.1 μg of pVSV-G plasmid and 0.5 and 1 μg of the product that is obtained from the PCR reaction of the reverse transcription of HIV. The transfection precipitate is withdrawn from cells after 18 hours of incubation, and fresh growth medium is added. After 24 hours of cultivation, the supernatant is clarified by centrifuging (500 g, 15 minutes) and transferred to P4 indicating cells that were pre-incubated with serial dilutions of a reverse transcriptase inhibitor, in triplicate wells, for four hours. The range of inhibitor concentrations used varies according to the compounds. The signal that is produced by the activation of the marker gene was developed with CPRG for 48 hours as for the analysis of the susceptibility to a reverse transcriptase inhibitor, and index IC50 was calculated by using the median effect equation.
To determine if NL43 is a reference virus that is suitable for comparison with clinical isolates, a group of samples taken from patients with ordinary treatment was tested on 3 RVA replicates for their susceptibility to reverse transcriptase inhibitors.
The reproducibility of the method for determining the susceptibility of the recombinant virus (RVA) to reverse transcriptase inhibitors (RTI) was evaluated by a series of test on 5 samples, selected so as to represent a wide range of susceptibility profiles, between 4 and 8 tests per sample, by using RNA preparations and separate PCR reactions.

Reference Virus NL4-3 = assay: Recombinant virus assay (RVA): susceptibility to reverse transcriptase inhibitors, reference virus; assay type: cell-based, HIV-1
Method: as §1
The pSRT plasmid that brings a deletion in the region that codes for pol extending from codon 24 of reverse transcriptase (base 2618) to codon 432 of reverse transcriptase (base 3872) includes all of the mutations combined with a resistance phenomenon that are known to date. […]

[5] = sample R1 (69N/T, 70R), 6 tests
[6] = sample R2 (41L, 62V, 67N, 69N, 75I, 77L, 115F, 116Y, 151M, 181C, 184V, 190A, 208Y, 215F, 219Q), 6 tests
[7] = sample R3 (184V, 215F), 6 tests
[8] = sample R4 (41L, 67N, 69D, 184V, 190A, H208Y, 210W, 215Y), 5 tests
[9] = sample R5 (215Y, 41L, 74V, 100I, 103N), 5 tests

| Molecule | Resistance Index, geometric mean (IC50 in the sample relative to NL43) [4, 5] | Resistance Index, geometric mean (IC50 in the sample relative to NL43) [4, 6] | Resistance Index, geometric mean (IC50 in the sample relative to NL43) [4, 7] | Resistance Index, geometric mean (IC50 in the sample relative to NL43) [4, 8] | Resistance Index, geometric mean (IC50 in the sample relative to NL43) [4, 9] | also measured |
| --- | --- | --- | --- | --- | --- | --- |
| T20 fusion inhibitor, a peptide derived from the distal helix sequence in the gp41 of HIV (from UniProt P03377 643-678) | – | – | – | – | – | increase of IC50 relative to LAI [1]: 12.5 fold; increase of IC50 relative to T5A1 (printed 15A1) [1]: 10 fold; increase of the value of IC50 relative to LAI [2]: > 100 fold; increase of the value of IC50 relative to T5A1 [2]: 80 fold |
| enfuvirtide | – | – | – | – | – | increase of IC50 ([3]; partially resistant NL4.3 virus relative to 15A1): 10 ×; increase of IC50 ([3]; partially resistant NL4.3 virus relative to LAI): 12.5 ×; increase of the value of IC50 ([3]; strongly resistant DIM virus relative to LAI): more than 100 ×; increase of the value of IC50 ([3]; strongly resistant DIM virus relative to T5A1): 80 × |
| Cc1cn([C@H]2C[C@H](N=[N+]=[N-])[C@@H](CO)O2)c(=O)[nH]c1=O [AZT, ziodvudine] | – | – | – | – | – | toxicity for the P4 cells (P4 cells): > 300 μm |
| Nc1ccn([C@@H]2CS[C@H](CO)O2)c(=O)n1 [3TC, lamivudine] | 1.3 | >f | > | > | 1.8 | median Resistance Index (RI) relative to NL43 [4]: ~1.22; resistance level (in words) ([4]; sample R3): high resistance level |
| C=C(C)[C@@H]1CC[C@]2(C(=O)NCCCCCCCC(=O)N[C@@H](CC(C)C)[C@@H](O)CC(=O)O)CC[C@]3(C)[C@H](CC[C@@H]4[C@@]5(C)CC[C@H](O)C(C)(C)[C@@H]5CC[C@]43C)[C@@H]12 [RPR103611] | – | – | – | – | – | increase of IC50 ([3]; LAT-L91H resistant virus relative to LAI and to T5A1): greater than 100 × |
| Cc1cn([C@H]2C=C[C@@H](CO)O2)c(=O)[nH]c1=O [D4T, stavudine] | – | – | – | – | – | median Resistance Index (RI) relative to NL43 [4]: around 0.92 |
| O=c1[nH]cnc2c1ncn2[C@H]1CC[C@@H](CO)O1 [DDI] | 1.4 | 26.9 | 3.1 | 3.0 | 2.6 | – |
| Nc1nc(NC2CC2)c2ncn([C@H]3C=C[C@@H](CO)C3)c2n1 [Abacavir] | 1.1 | > | 4.3 | 6.1 | 1.7 | IC50 index for the native stock of the virus (Reference Virus NL4-3): about 3 μM; index IC50 for the P4 cells (cellular toxicity) (P4 cells): about 250 μM |
| Cc1ccnc2c1NC(=O)c1cccnc1N2C1CC1 [Nevirapine] | – | – | – | – | – | resistance index ([4]; one virus carrying a mutation on codon 98 (A for S) of reverse transcriptase): 11.0; resistance levels (in words) [4]: high resistance levels |
| O=C1Nc2ccc(Cl)cc2[C@@](C#CC2CC2)(C(F)(F)F)O1 [Efavirenz] | 1.0 | 74.9 | 1.0 | 149.8 | > | resistance levels (in words) [4]: high resistance levels |
